# In patent publication US20240217950A1, “PESTICIDALLY ACTIVE CYCLIC AMINE COMPOUNDS” (SYNGENTA CROP PROTECTION AG, priority 2021, published 2024):
# Test system: Tetranychus urticae (Two-Spotted Spider Mite)
# Assay: Tetranychus urticae (two-spotted spider mite) feeding/contact activity on bean leaf discs
# Type: in vivo
# Settings: foliar, 192 h, application rate of 200 ppm, sprayed bean leaf discs, mixed population (mobile stages), 8 days after infestation
# Description: Example B1: Tetranychus urticae (Two-Spotted Spider Mite)
# Feeding/contact activity Bean leaf discs on agar in 24-well microtiter plates were sprayed with aqueous test solutions prepared from 10′000 ppm DMSO stock solutions. After drying the leaf discs were infested with a mite population of mixed ages. The samples were assessed for mortality on mixed population (mobile stages) 8 days after infestation.
smiles,measurement,value
"COCc1nc(OCc2cc(C(F)(F)F)ccc2F)c(C#N)cc1C(=O)N1CCC(c2noc(C)n2)CC1 [Compound P1.2, 2-[[2-fluoro-5-(trifluoromethyl)phenyl]methoxy]-6-(methoxymethyl)-5-[4-(5-methyl-1,2,4-oxadiazol-3-yl)piperidine-1-carbonyl]pyridine-3-carbonitrile]",mortality at 200 ppm,≥ 80%
